Experimental data published in patent publication US20220338473A1, “USE OF BENZYL ALCOHOL AS A HERBICIDE” (INNOVI, priority 2019, published 2022).

Columns and labels:
Type in all cases: in vivo
Barley seeds = experiment: Pre-emergence herbicide activity: germination of seeds sown at different depths
Protocol: The assays were carried out on potted plants.
Pure benzyl alcohol was used (PanReac AppliChem—ITW Reagents). The application of the product is carried out with a trigger spray bottle which makes it possible to spray 1 g of product per spraying as microdroplets.
Barley seeds (50 seeds per condition) are sown in potting soil at different depths (1, 2 and 3 cm). Then, 100% benzyl alcohol is sprayed on the earth (above the seeds) at different concentrations (10, 25, 50, 100, 200, 300 L/Ha).
The state of germination is observed at 0 and 11 days. The percentage of germination is the percentage of germinated seeds evaluated after 11 days.
The percentage of seeds germinated under each of the conditions is determined and if it is below 70%, pre-emergence use is not recommended.

Bindweed = experiment: Preventative herbicide activity by sprinkling of the soil; design: key to Plants sprouted despite the preventative treatment: yes: the areas where the plants have sprouted despite the preventative treatment; no: the areas where the preventative treatment made it possible to prevent the sprouting of the identified plants; details: for Plants sprouted despite the preventative treatment: soil sprinkling
Protocol: (§1) Areas identified as each year showing the presence of couch grass, grass, bindweeds and thistles were treated preventatively. […] The results are reported in Table 6 below, in which the note “yes” indicates the areas where the plants have sprouted despite the preventative treatment, and the note “no” indicates the areas where the preventative treatment made it possible to prevent the sprouting of the identified plants.

Couch grass = experiment: as above; design: key to Plants sprouted despite the preventative treatment: yes: the areas where the plants have sprouted despite the preventative treatment; no: the areas where the preventative treatment made it possible to prevent the sprouting of the identified plants; details: for Plants sprouted despite the preventative treatment: soil sprinkling
Protocol: as §1

Grass = experiment: as above; design: key to Plants sprouted despite the preventative treatment: yes: the areas where the plants have sprouted despite the preventative treatment; no: the areas where the preventative treatment made it possible to prevent the sprouting of the identified plants; details: for Plants sprouted despite the preventative treatment: soil sprinkling
Protocol: as §1

Thistle = experiment: as above; design: key to Plants sprouted despite the preventative treatment: yes: the areas where the plants have sprouted despite the preventative treatment; no: the areas where the preventative treatment made it possible to prevent the sprouting of the identified plants; details: for Plants sprouted despite the preventative treatment: soil sprinkling
Protocol: as §1

Petunia = experiment: Inter-row cultivation herbicide activity: effect on untreated adjacent plant; design: key: yes: the dose and the mode of use when use in intercrop cultivation is prescribed; indicates that it is not
Protocol: Pure benzyl alcohol was used (PanReac AppliChem—ITW Reagents).
Two plants (Petunia) were planted with a spacing of 20 cm. Only one of the plants is treated, either in a foliar manner or by sprinkling in different concentrations (10 L/Ha, 20 L/Ha, 50 L/Ha, 100 L/Ha, 200 L/Ha, 300 L/Ha, […], 500 L/Ha, 600 L/Ha).

[1] = system: Chenopodium album (CHEAL); experiment: Systemic action through contact with the leaves: metabolic activity by epifluorescence microscopy; details: 20 L/ha, control group 5
Protocol: Chenopodium album (CHEAL) seeds are sown in Petri dishes in vermiculite moistened with a 0.2% solution of […]. The dishes are incubated in a climatic chamber at 15° C./20° C. night/day and 14 h photoperiod up to the stage of emergence of the cotyledons. The plantlets are then transplanted, at a rate of 6 plants per pot and 5 pots in each of the groups (treated group and control group), in a mixture of agricultural earth:vermiculite (50:50).
The plantlets are cultivated under the same environmental conditions as previously up to the stage BBCH12-14.
The plants are treated with benzyl alcohol at the stage BBCH12-14 with a dose of 20 L/ha benzyl alcohol with 660 g/I water, i.e. 13.2 kg benzyl alcohol/ha.
The product is applied in a volume corresponding to 300 L/ha using a spraying bench equipped with agricultural nozzles (Turbo Teejet TTII0015).
After treatment, the plants are returned to cultivation in a climatic chamber at 15° C./20° C. night/day and 14 h photoperiod.
A control group is not treated and only receives water.
[…] observations were carried out by epifluorescence microscopy on the leaves and the roots of the treated plants and the control plants, 24 h and 7 days after treatment on the leaves.
The results observed on the epifluorescence microscopy images are reported in Tables 11 and 12 below, in which a mark of 0 to 5 is attributed depending on the intensity and the surface area of the fluorescence observed, where 0=no metabolic activity, and 5=complete metabolic activity.
Before uprooting and epifluorescence microscopy analysis, the treated plants were divided into 2 groups: • Group 1: plants not showing or showing few symptoms of drying on the treated area (leaf) • Group 2: plants having a dry leaf on the treated area (leaf)

[2] = 24 h after leaf spraying, Group 1 (no or few symptoms of drying)
[3] = 24 h after leaf spraying, Group 2 (dry leaf on treated area)
[4] = 7 days after leaf spraying, Group 1 (no or few symptoms of drying)
[5] = 7 days after leaf spraying, Group 2 (dry leaf on treated area)

SMILES: OCc1ccccc1 [benzyl alcohol]
- Pre-emergence use prescribed (germination of sown seeds at 11 days not below 70%) (Barley seeds; seeding depth 1 cm, 50 L/Ha benzyl alcohol sprayed on the earth): yes (pre-emergence use is prescribed)
- Pre-emergence use prescribed (germination of sown seeds at 11 days not below 70%) (Barley seeds; seeding depth 1 cm, 100 L/Ha benzyl alcohol sprayed on the earth): no (pre-emergence use is not recommended)
- Pre-emergence use prescribed (germination of sown seeds at 11 days not below 70%) (Barley seeds; seeding depth 1 cm, less than 50 L/Ha benzyl alcohol sprayed on the earth): yes (pre-emergence use is prescribed)
- Pre-emergence use prescribed (germination of sown seeds at 11 days not below 70%) (Barley seeds; seeding depth 2 cm, 50 L/Ha benzyl alcohol sprayed on the earth): yes (pre-emergence use is prescribed)
- Pre-emergence use prescribed (germination of sown seeds at 11 days not below 70%) (Barley seeds; seeding depth 2 cm, 100 L/Ha benzyl alcohol sprayed on the earth): yes (pre-emergence use is prescribed)
- Pre-emergence use prescribed (germination of sown seeds at 11 days not below 70%) (Barley seeds; seeding depth 2 cm, less than 50 L/Ha benzyl alcohol sprayed on the earth): yes (pre-emergence use is prescribed)
- Pre-emergence use prescribed (germination of sown seeds at 11 days not below 70%) (Barley seeds; seeding depth 3 cm, 50 L/Ha benzyl alcohol sprayed on the earth): yes (pre-emergence use is prescribed)
- Pre-emergence use prescribed (germination of sown seeds at 11 days not below 70%) (Barley seeds; seeding depth 3 cm, 100 L/Ha benzyl alcohol sprayed on the earth): yes (pre-emergence use is prescribed)
- Pre-emergence use prescribed (germination of sown seeds at 11 days not below 70%) (Barley seeds; seeding depth 3 cm, less than 50 L/Ha benzyl alcohol sprayed on the earth): yes (pre-emergence use is prescribed)
- Quantity of benzyl alcohol (sprinkling) that prevents sprouting (Bindweed; preventative soil sprinkling): 110 L/Ha
- Plants sprouted despite the preventative treatment (Bindweed; 50 L/ha pure benzyl alcohol): yes
- Plants sprouted despite the preventative treatment (Bindweed; 70 L/Ha pure benzyl alcohol): yes
- Plants sprouted despite the preventative treatment (Bindweed; 110 L/Ha pure benzyl alcohol): no
- Plants sprouted despite the preventative treatment (Bindweed; 120 L/Ha pure benzyl alcohol): no
- Plants sprouted despite the preventative treatment (Bindweed; 130 L/Ha pure benzyl alcohol): no
- Plants sprouted despite the preventative treatment (Bindweed; 150 L/Ha pure benzyl alcohol): no
- Quantity of benzyl alcohol (sprinkling) that prevents sprouting (Couch grass; preventative soil sprinkling): 130 L/Ha
- Plants sprouted despite the preventative treatment (Couch grass; 50 L/ha pure benzyl alcohol): yes
- Plants sprouted despite the preventative treatment (Couch grass; 70 L/Ha pure benzyl alcohol): yes
- Plants sprouted despite the preventative treatment (Couch grass; 110 L/Ha pure benzyl alcohol): yes
- Plants sprouted despite the preventative treatment (Couch grass; 120 L/Ha pure benzyl alcohol): yes
- Plants sprouted despite the preventative treatment (Couch grass; 130 L/Ha pure benzyl alcohol): no
- Plants sprouted despite the preventative treatment (Couch grass; 150 L/Ha pure benzyl alcohol): no
- Quantity of benzyl alcohol (sprinkling) that prevents sprouting (Grass; preventative soil sprinkling): 120 L/Ha
- Plants sprouted despite the preventative treatment (Grass; 50 L/ha pure benzyl alcohol): yes
- Plants sprouted despite the preventative treatment (Grass; 70 L/Ha pure benzyl alcohol): yes
- Plants sprouted despite the preventative treatment (Grass; 110 L/Ha pure benzyl alcohol): yes
- Plants sprouted despite the preventative treatment (Grass; 120 L/Ha pure benzyl alcohol): no
- Plants sprouted despite the preventative treatment (Grass; 130 L/Ha pure benzyl alcohol): no
- Plants sprouted despite the preventative treatment (Grass; 150 L/Ha pure benzyl alcohol): no
- Quantity of benzyl alcohol (sprinkling) that prevents sprouting (Thistle; preventative soil sprinkling): 110 L/Ha
- Plants sprouted despite the preventative treatment (Thistle; 50 L/ha pure benzyl alcohol): yes
- Plants sprouted despite the preventative treatment (Thistle; 70 L/Ha pure benzyl alcohol): yes
- Plants sprouted despite the preventative treatment (Thistle; 110 L/Ha pure benzyl alcohol): no
- Plants sprouted despite the preventative treatment (Thistle; 120 L/Ha pure benzyl alcohol): no
- Plants sprouted despite the preventative treatment (Thistle; 130 L/Ha pure benzyl alcohol): no
- Plants sprouted despite the preventative treatment (Thistle; 150 L/Ha pure benzyl alcohol): no
- Inter-row use possible (untreated plant at 20 cm does not collapse) (Petunia; foliar, 50 L/Ha): no
- Inter-row use possible (untreated plant at 20 cm does not collapse) (Petunia; foliar, 100 L/Ha): no
- Inter-row use possible (untreated plant at 20 cm does not collapse) (Petunia; foliar, 200 L/Ha): no
- Inter-row use possible (untreated plant at 20 cm does not collapse) (Petunia; foliar, less than 50 L/Ha): no
- Inter-row use possible (untreated plant at 20 cm does not collapse) (Petunia; sprinkling, 50 L/Ha): yes
- Inter-row use possible (untreated plant at 20 cm does not collapse) (Petunia; sprinkling, 100 L/Ha): yes
- Inter-row use possible (untreated plant at 20 cm does not collapse) (Petunia; sprinkling, 200 L/Ha): no
- Inter-row use possible (untreated plant at 20 cm does not collapse) (Petunia; sprinkling, less than 50 L/Ha): yes
- Metabolic activity on the leaves (mark 0 to 5; 0=no, 5=complete metabolic activity) [1, 2]: 1
- Metabolic activity on the roots (mark 0 to 5; 0=no, 5=complete metabolic activity) [1, 2]: 2
- Metabolic activity on the leaves (mark 0 to 5; 0=no, 5=complete metabolic activity) [1, 3]: 1
- Metabolic activity on the roots (mark 0 to 5; 0=no, 5=complete metabolic activity) [1, 3]: 2.5
- Metabolic activity on the leaves (mark 0 to 5; 0=no, 5=complete metabolic activity) [1, 4]: 0.5
- Metabolic activity on the roots (mark 0 to 5; 0=no, 5=complete metabolic activity) [1, 4]: 1.5
- Metabolic activity on the leaves (mark 0 to 5; 0=no, 5=complete metabolic activity) [1, 5]: 0
- Metabolic activity on the roots (mark 0 to 5; 0=no, 5=complete metabolic activity) [1, 5]: 2
